{"source": "patent US6197746A", "about": "“Method of using secretin for treating autism” (priority 1999, dated 2001)", "key": {"pancreas": {"tested_on": "pancreas", "experiment": "Pancreatic juice release after intravenous secretin during upper gastrointestinal endoscopy (Example 1)", "assay_type": "in vivo, human", "details": "immediately after 2 CU/kg i.v. over one minute; usual rate 1-2 ml/min", "procedure": "(§1) When the patient was […], the secretin was administered by way of an infusion as part of an upper gastrointestinal endoscopy. The secretin was used in this diagnostic procedure at the request of the patient's parents, one of which is an inventor of the present invention. The secretin used in this procedure is known as Secretin-Ferring available from Ferring Laboratories, Inc., Suffern, N.Y. (See Appendix A). The secretin was dissolved in a […] solution of sodium chloride and administered in a dosage of 2 clinical units (CU) per kilogram (kg) body weight by intravenous injection over one minute. (I.E. 30 IU IV for approximately 15 kilograms of body weight.)\n(§2) The diagnostic tests performed on the patient during this procedure also indicated gastric inflammation. […] The following Table I summarizes the improvements observed in the patient within 3 weeks after the infusion of secretin."}, "symptoms of autism [1]": {"tested_on": "symptoms of autism", "experiment": "Symptoms and behaviour of a child with symptoms of autism after secretin infusion (Example 1, Table I)", "assay_type": "in vivo, human", "procedure": "The present invention will be better understood from the following examples which are given by way of illustration and not by way of limitation. The patient, the same in both examples, is a child with symptoms of autism.\nas §1, §2"}, "brain perfusion": {"tested_on": "brain perfusion", "experiment": "SPECT scan of the brain after secretin infusion (Example 1)", "assay_type": "in vivo, human", "procedure": "Further, the patient's secretin cells prior to receiving treatment, measured at a level of 9, are far below the normal limit in the range of 20-70.\n(§3) Biomedical changes were also measured in the patient."}, "[2]": {"tested_on": "serotonin levels; rubella titers", "experiment": "Blood tests after secretin infusion (Example 1)", "assay_type": "in vivo, human", "procedure": "as §3"}, "symptoms of autism [3]": {"tested_on": "symptoms of autism", "experiment": "Daily transdermal secretin with DMSO in a child with symptoms of autism (Example 2)", "assay_type": "in vivo, human", "procedure": "At the time of this treatment, the patient was […]. Secretin was administered transdermally using pharmaceutical grade dimethyl sulfoxide (DMSO) (generally 99.9% pure) available from Clinic Service Co., Box 2512, Hemet Calif. 92543. The secretin (Secretin-Ferring) was administered daily in a dosage of about 75 CU over a five day period (i.e., about 15 CU daily) For each treatment, about 4 drops of DMSO were placed onto the skin of the patient, about 15 CU of the crystalline secretin was placed onto the DMSO, and the composition was rubbed into the skin."}, "abnormal opioid peptides": {"tested_on": "abnormal opioid peptides", "details": "after the secretin infusion; autistic children that responded to casein free and gluten free diet; cited from earlier work"}, "[4]": {"details": "within weeks after the treatment"}}, "note": "Entries after “also recorded” stand apart in the source; their conditions may differ.", "data": [{"substance": "secretin", "values": [{"measurement": "amount of pancreatic juice being released", "setting": "pancreas", "value": "approximately 10 ml/min"}, {"measurement": "rate of the patient's progress", "setting": "symptoms of autism [1]; at about 5 weeks after first infusion", "value": "appeared to decrease"}, {"measurement": "results of second and third infusions", "setting": "symptoms of autism [1]; second about 9 months after first, third about three months after second", "value": "achieved the same results"}, {"measurement": "limited diet preferences", "setting": "symptoms of autism [1]; within 3 weeks after infusion", "value": "No Change"}, {"measurement": "water consumption", "setting": "symptoms of autism [1]; within 3 weeks after infusion", "value": "approximately 50 cups per day"}, {"measurement": "bowel movements", "setting": "symptoms of autism [1]; within 3 weeks after infusion, before: abnormal", "value": "Normal bowel movements"}, {"measurement": "excessive water consumption", "setting": "symptoms of autism [1]; within 3 weeks after infusion, before: approximately 50 cups per day", "value": "no change"}, {"measurement": "potty training", "setting": "symptoms of autism [1]; within 3 weeks after infusion, before: diapers only", "value": "Completely potty trained"}, {"measurement": "imitation of commands", "setting": "symptoms of autism [1]; within 3 weeks after infusion, before: did not imitate", "value": "Will imitate almost any multi-step"}, {"measurement": "\"spinning\" episodes", "setting": "symptoms of autism [1]; within 3 weeks after infusion, before: infrequent (1-2 times/week)", "value": "No spinning episodes"}, {"measurement": "eye contact", "setting": "symptoms of autism [1]; within 3 weeks after infusion, before: minimal eye contact", "value": "75 % of the time"}, {"measurement": "connections made between language and objects", "setting": "symptoms of autism [1]; within 3 weeks after infusion, before: no apparent connections", "value": "Many connections made between new"}, {"measurement": "flash cards", "setting": "symptoms of autism [1]; within 3 weeks after infusion, before: no flash cards", "value": "40-50 flash cards"}, {"measurement": "focus on requested tasks", "setting": "symptoms of autism [1]; within 3 weeks after infusion, before: no focus", "value": "Will sit and watch carefully"}, {"measurement": "interest in drawing", "setting": "symptoms of autism [1]; within 3 weeks after infusion, before: no interest", "value": "Wants to draw constantly"}, {"measurement": "response to request for gestures", "setting": "symptoms of autism [1]; within 3 weeks after infusion, before: no response", "value": "Responds to all kinds of things"}, {"measurement": "sentences", "setting": "symptoms of autism [1]; within 3 weeks after infusion, before: no sentences", "value": "Short sentences"}, {"measurement": "words", "setting": "symptoms of autism [1]; within 3 weeks after infusion, before: two words", "value": "100's of words"}, {"measurement": "sleeping problems", "setting": "symptoms of autism [1]; within 3 weeks after infusion, before: up numerous times each night", "value": "Has slept through almost every night"}, {"measurement": "interaction with videos", "setting": "symptoms of autism [1]; within 3 weeks after infusion, before: watch videos", "value": "gets \"involved\" interactively"}, {"measurement": "chronic abnormal bowel movements", "setting": "symptoms of autism [1]; within days after the administration, no change of diet", "value": "became normal"}, {"measurement": "eye contact", "setting": "symptoms of autism [1]; [4]", "value": "able to make normal eye contact"}, {"measurement": "language", "setting": "symptoms of autism [1]; [4]", "value": "language appeared for the first time in two years"}, {"measurement": "other behavioral and developmental problems", "setting": "symptoms of autism [1]; [4]", "value": "improved remarkably"}, {"measurement": "perfusion of the right posterior parietal and right temporal lobes (blood flow in the brain)", "setting": "brain perfusion", "value": "improved; also recorded: increased"}, {"measurement": "measles, mumps and rubella antibodies", "setting": "[2]; after the secretin administration in Example 1", "value": "reduction"}, {"measurement": "rubella titers", "setting": "[2]; after the treatment, dropped from 5.8", "value": 2.3}, {"measurement": "serotonin levels", "setting": "[2]; blood, after the treatment", "value": "rise and increase"}, {"measurement": "autistic behavioral symptoms when the daily dose is stopped", "setting": "symptoms of autism [3]; transdermal daily dose stopped", "value": "autistic behavioral symptoms return"}, {"measurement": "language", "setting": "symptoms of autism [3]; transdermal daily, within a period of about 6 months", "value": "progressed to spontaneous and conversational language"}, {"measurement": "abnormal opioid peptides", "setting": "abnormal opioid peptides", "value": "disappeared"}]}]}
